What all share (settings): incubation time: 72 h
Test [1] relates to DU-4475. Put plainly: normalised viability (% of control), CellTiter-Blue; higher = more viable cells (about 100 = DMSO control). As for the experimental part: (§1)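 DSRT, CellTiter-Blue viability, 72 h incubation. Signal is normalised to DMSO and benzethonium chloride controls. Value is the normalised response at dose 9.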
Test [2] concerns MDA-MB-453. Described as above. As for the experimental part: as §1
Test [3] has as its system HDQ-P1. The description is as above. As for the experimental part:
as §1

Test [4] has as its system CAL-148. The description is as above. As for the experimental part:
as §1

Test [5] relates to CAL-85-1. The description is as above. On the procedure:
as §1

Test [6] has as its system CAL-51. Described as above. As for the experimental part:
as §1

Test [7] has as its system DU-4475. The experiment in a line: normalised viability (% of control), CellTiter-Blue; higher = more viable cells (100 = DMSO, 0 = benzethonium chloride kill control). As for the experimental part: (§2)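 DSRT, CellTiter-Blue viability, 72 h incubation. Signal is normalised to DMSO and benzethonium chloride controls. Value is the normalised response at dose 1.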
Test [8] concerns MDA-MB-453. The test is described as above. On the procedure:
as §2

Test [9] relates to SK-BR-3. The description is as above. On the procedure: as §2
Test [10] concerns CAL-120. The description is as above. As for the experimental part: as §2
The subject of test [11] is MDA-MB-231. The test is described as above. On the procedure: as §2
Test [12] has as its system Hs578T. The description is as above. On the procedure: as §2
Test [13] relates to HCC1143. The description is as above. As for the experimental part: as §2
In test [14] the test system is MDA-MB-468. Described as above. As for the experimental part: as §2
For test [15], the system named is MDA-MB-436. The test is described as above. As for the experimental part: as §2
For test [16], the system named is BT-474. The test is described as above. As for the experimental part:
as §2

In test [17] the test system is MFM-223. The description is as above. On the procedure: as §2
Test [18] deals with BT-549. Described as above. As for the experimental part:
as §2

The test system of test [19] is HCC1599. The test is described as above. As for the experimental part:
as §2

Test [20] concerns HCC1937. The description is as above. As for the experimental part: as §2
Test [21] relates to CAL-148. The description is as above. On the procedure:
as §2

Test [22] concerns CAL-85-1. The description is as above. On the procedure: as §2
Test [23] has as its system CAL-51. The test is described as above. As for the experimental part:
as §2

In test [24] the test system is DU-4475. The experiment in a line: normalised response (% of control), CellTiter-Glo; higher = more viable cells (100 = DMSO, 0 = benzethonium chloride kill control). In a few lines:
(§3)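 Breast cancer cell lines (20 µl suspension) were seeded into 384-well plates holding compound at 5 concentrations in 10-fold steps over a compound-specific 10,000-fold range, then incubated 72 h. CellTox Green fluorescence (485/520 nm) was read first, then CellTiter-Glo luminescence after 10 min at room temperature. Each plate was normalised to 0.1 % DMSO (100) and a positive kill control (0). Each value is the normalised signal at a single concentration of the series.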

In test [25] the test system is MDA-MB-453. The test is described as above. In a few lines: as §3
Test [26] deals with SK-BR-3. The description is as above. In a few lines: as §3
In test [27] the test system is CAL-120. The description is as above. The method in brief: as §3
Test [28] has as its system MDA-MB-231. The description is as above. In a few lines:
as §3

For test [29], the system named is Hs578T. The description is as above. The method in brief:
as §3

Test [30] concerns HCC1143. The description is as above. The method in brief:
as §3

Test [31] has as its system MDA-MB-468. Described as above. In a few lines: as §3
For test [32], the system named is MDA-MB-436. The description is as above. The method in brief: as §3
In test [33] the test system is BT-474. The test is described as above. In a few lines: as §3
Test [34] deals with MFM-223. The description is as above. In a few lines:
as §3

Test [35] has as its system BT-549. The description is as above. The method in brief:
as §3

The test system of test [36] is HCC1599. Described as above. The method in brief: as §3
The next test relates to MCF-10A. The test is described as above. The method in brief:
as §3

For test [37], the system named is HDQ-P1. The description is as above. In a few lines: as §3
Test [38] relates to HCC1937. Described as above. The method in brief:
as §3

Test [39] relates to CAL-148. The description is as above. In a few lines: as §3
Test [40] has as its system CAL-85-1. The description is as above. In a few lines: as §3
Test [41] has as its system CAL-51. Described as above. The method in brief:
as §3

The structures appear in SMILES notation. Values joined by “and” are separate entries in the source; they are usually repeats but may differ in a detail not shown here. Identical values can stand only once.

Regarding `O=P(O)(NCCCl)NCCCl` [Ifosfamide mustard] (10000 nM), the normalised viability in the test with DU-4475 [1] worked out at 96.1%; in the test with MDA-MB-453 [2], 99.8%; with HDQ-P1 [3], 105%; in the test on CAL-148 [4], 105%; in the test on CAL-85-1 [5] it was 87.1%; in the test with CAL-51 [6] it was 94.3%.

Regarding `CS(=O)(=O)CCNCc1ccc(-c2ccc3ncnc(Nc4ccc(OCc5cccc(F)c5)c(Cl)c4)c3c2)o1` [Lapatinib] (1 nM), the normalised viability with DU-4475 [7] is 96.4% and 93.1%; with MDA-MB-453 [8], 99.8% and 92.5%; in the test on SK-BR-3 [9], 92.7% and 105%; in the test on CAL-120 [10], 83.3% and 87.2%; in the test on MDA-MB-231 [11], 86.6% and 96.8%; in the test on Hs578T [12], 100% and 124%. For the same compound, the normalised viability in the test with HCC1143 [13] is 87% and 88%; in the test on MDA-MB-468 [14], 108% and 114%; in the test with MDA-MB-436 [15], 104% and 115%; in the test on BT-474 [16], 85.4% and 94.8%; with MFM-223 [17], 96.7% and 95.1%; in the test on BT-549 [18], 88.8% and 94.3%. Also, the normalised viability with HCC1599 [19] is 114% and 97.8%; in the test on HCC1937 [20], 99.3% and 105%; in the test on CAL-148 [21], 97.7% and 107%; with CAL-85-1 [22], 90.3% and 86.8%; in the test with CAL-51 [23], 116% and 104%. The normalised response with DU-4475 [24] came to 107%; in the test on MDA-MB-453 [25], 108%; with SK-BR-3 [26], 116%; in the test on CAL-120 [27], 100%; with MDA-MB-231 [28], 99.5%; in the test with Hs578T [29], 104%. Moreover, the normalised response turned out to be 105% in the test with HCC1143 [30]; 106% in the test on MDA-MB-468 [31]; 99.3% with MDA-MB-436 [32]; 105% in the test on BT-474 [33]; 107% in the test on MFM-223 [34]; 95.4% in the test with BT-549 [35]. The normalised response is 90.2% with HCC1599 [36]; 99.3% in the test on MCF-10A; 95.7% in the test on HDQ-P1 [37]; 100% in the test with HCC1937 [38]; 110% in the test with CAL-148 [39]; 93.4% with CAL-85-1 [40]. For the same compound, the normalised response in the test on CAL-51 [41] stood at 77.7%.

On to `CC[C@@]1(O)C(=O)OCc2c1cc1n(c2=O)Cc2cc3ccccc3nc2-1` [Camptothecin] (5000 nM), for which the normalised viability is -0.07% with DU-4475 [1]; 5.48% with MDA-MB-453 [2]; 24.2% in the test with HDQ-P1 [3]; 0.33% in the test with CAL-148 [4]; 13.9% with CAL-85-1 [5]; 1.8% with CAL-51 [6].

On to `c1ccc(C2CN3CCSC3=N2)cc1` (centres undefined) [Tetramisole] (10000 nM), for which the normalised viability in the test with DU-4475 [1] is 101%; in the test on MDA-MB-453 [2], 99.5%; in the test on HDQ-P1 [3], 116%; in the test on CAL-148 [4], 117%; with CAL-85-1 [5], 98.1%; with CAL-51 [6], 89.3%.

Values taken from the supplement of paper PMC4862054.
